Reference: patent publication US6294568A, “5-arylpyrrole derivatives” (priority 1997, dated 2001)
Like-named read-outs stand apart in the source and are kept apart here.

Columns and labels:
CaCo-2 cells = test: Cytostatic Action Test on Various Cells (XTT method); assay type: cell-based; details: for IC50: Homo sapiens, read-out: Cytostatic rate (IC50)
Method: The cytostatic measurement of the various cancer cells were conducted according to the method of the U.S. National Cancer Institute (NCI). Adhesive cells such as CaCo-2 and HepG2 were adjusted in each of the specified culture mediums at 0.5×10^5 cells/ml concentration and pipetted into a 96 well-plate (Costar3695) in an amount of 100 μl/well. The cells were cultured under the conditions of at 37° C. in 5% CO2 atmosphere for 24 hours to allow the cell adhesion, and then the numbers of each of the cells were determined by the XTT method to be recorded as the cell number of day 0 (C0days). After that, only the medium solutions were exchanged in the control groups, and culture mediums each containing the test samples adjusted to each of the specified concentrations were exchanged In the test sample dispensing groups, then the cells were cultured under the conditions of at 37° C. in 5% CO2 atmosphere for 72 hours. The numbers of each of the cells were determined by the XTT method to be recorded as the cell number of day 3 (C3days). Further, only the medium solutions were pipetted into the control groups and the test sample administration groups were adjusted to 5×10^5 cells/ml concentrations in each of the specified culture mediums containing the test samples adjusted to each of the specified concentrations, then pipetted into a 96 well-plate (Costar3695) in an amount of 100 μl/well. The cells were cultured under the condition of at 37° C. in 5% CO2 atmosphere for 72 hours, and the number of each of the cells (T3days) were determined in the same manner.
Cell proliferation rate (%) with respect to control groups=[(T3days
-C0days)/(C3days -C0days)]×100 Formula: 5

Sarcoma 180 solid tumor = test: Antitumor Effect with respect to Sarcoma 180 Solid Tumor Mouse; assay type: in vivo, ICR mice; details: 10 mg/kg in abdominal cavity, 10 days; day 11
Method: The antitumor effect test was conducted according to the method of the U. S. National Cancer Institute (NCI) (Cancer Chemotherapy Reports part 3, Vol. 3, 1 (1978)). Cell suspension of Sarcoma 180 cells (mouse sarcoma virus) which was employed as the tumor cell strain for transplant was prepared by diluting the cells in the Hank's solution at 2×10^7 cells/ml concentration ([…]), and ICR mice (10 mice per group) aged 5 weeks were injected subcutaneously with 0.2 ml of the cell suspension at the region of the back. Setting the day of the tumor transplantation as day 0. the mice were administered in the abdominal cavity with the compounds of the invention (Preparation Examples 1 and 37), 5-fluorouracyl, and the solution as the control for 10 days consecutively from day 1. On day 11, the mice were sacrificed, and portions of the solid tumor were removed so that weights thereof were measured. The dosage of each of the test samples was 10 mg/kg.

Brewer's Yeast Fever = test: Antipyretic Action Test With Respect To Brewer's Yeast Fever; assay type: in vivo, rats
Method: The antipyretic action was measured as described in the following. A sensor was inserted into the rectum of each rats and the body temperature of one hour after the insertion was recorded as the basal body temperature. The rats were injected subcutaneously with 2 ml/body of 20% brewer's yeast at the region of back and, 18 hours after the injection, the intrafebrile body temperatures were measured. Rats who had shown not less than 0.75° C. of body temperature elevation were selected to whom the test samples was administered orally. The body temperatures of the selected rats were measured every one hour for the following 5 hours. The dosage of each of the test samples was 10 mg/kg.

[1] = tested on: pain threshold of brewer's yeast inflamed hind paw; test: Analgesic Action Test (Randall et al.); assay type: in vivo, SD rats; details: 3 mg/kg
Method: SD rats (6 rats per group) fasted overnight were employed for the test. After the measurement of pain threshold values of the left and right hind paws twice using an analgesimeter, the rats were injected subcutaneously with 0.1 ml of 20% brewer's yeast solution at the plantar area of the right hind paw to elicit inflammation. Two hours after the elicitation of inflammation, the pain threshold values of the left and right hind paws were measured and, immediately after the measurement, the test samples were administered orally to the rats. Three hours after the administration, the pain threshold values of the left and right hind paws were measured. […] The dosage amount of each of the test samples was 3 mg/kg.
Pain threshold value rising rate (%)=((pain threshold value of 3 hours after drug administration-pain threshold value of 2 hours after yeast administration)/(pain threshold value before yeast administration-pain threshold value of 2 hours after yeast administration))×100
Pain threshold value fluctuation rate (%)=(1 -(pain threshold value of 3 hours after drug administration/pain threshold value of 2 hours after […]

adjuvant arthritis = test: Rat Adjuvant Arthritis Test; assay type: in vivo, SD rats; details: 3 mg/kg, oral
Method: SD rats were injected subcutaneously with […] liquid paraffin/rat of H-37RA strain in the plantar area of the right hind paw. Only liquid paraffin (0.05 ml) was administered to control groups in the same manner. 21 days after the administration, rats showing the evidence of arthritis were selected and divided into groups having equal mean left and right hind paw volumes, and also having equal arthritis scores. From the date of the grouping, the test samples were administered orally to the rats once daily for 7 days (only the solvent was administered to the negative and positive control groups). The degree of the arthritis was quantitatively evaluated by measuring the volumes of the left and right hind paws by using a volume meter (manufactured by Muromachi Kikai) and by scoring the degree of arthritis by macroscopic observation as illustrated in Table 2. According to the scoring criteria in Table 2, 15 is a perfect score.
The dosage of each of the test samples was 3 mg/kg.

carrageenan footedema = test: Carrageenan Footedema Suppression Test; assay type: in vivo, SD rats; details: oral; paw volume three hours after carrageenan administration
Method: The carrageenin footedema suppression test was conducted according to the method of Winter et al. (J. Pharm. Exp. Ther., Vol.141, 369 (1963)). The test samples suspended in Tween 80 were administered orally to SD rats (6 rats per 1 group) in an amount of 1 ml per 100 g of the body weight, while only the solvent was administered in the same manner as above as a control. One hour after the administration, 1% carrageenan physiological saline was injected subcutaneously to the rats in the plantar area of the right hind paw. Three hours after the carrageenan administration, the paw volumes were measured and the edematization rate (%) was calculated with Formula 1 and then edematization suppression rate (%) was calculated with Formula 2.
Edematization rate (%)=((paw volume after carrageenan injection- paw volume before carrageenan injection)/(paw volume before carrageenan injection)×100 Formula: 1
Edematization suppression rate (%)=((edematization rate of control-
edematization rate of test samples)/edematization rate of […]

Human COX-2 = molecular target: T1, Human COX-2 (Homo sapiens, UniProt P35354); test: Human COX-2 Inhibitory Activity Test (LPS-induced PGE2 in blood); assay type: cell-based
T1 construct: endogenous in cells; host or cells: heparinised whole blood of a healthy human donor pretreated with aspirin, stimulated with LPS (own knowledge: COX-2 is induced in monocytes)
T1 sequence (P35354 18-604): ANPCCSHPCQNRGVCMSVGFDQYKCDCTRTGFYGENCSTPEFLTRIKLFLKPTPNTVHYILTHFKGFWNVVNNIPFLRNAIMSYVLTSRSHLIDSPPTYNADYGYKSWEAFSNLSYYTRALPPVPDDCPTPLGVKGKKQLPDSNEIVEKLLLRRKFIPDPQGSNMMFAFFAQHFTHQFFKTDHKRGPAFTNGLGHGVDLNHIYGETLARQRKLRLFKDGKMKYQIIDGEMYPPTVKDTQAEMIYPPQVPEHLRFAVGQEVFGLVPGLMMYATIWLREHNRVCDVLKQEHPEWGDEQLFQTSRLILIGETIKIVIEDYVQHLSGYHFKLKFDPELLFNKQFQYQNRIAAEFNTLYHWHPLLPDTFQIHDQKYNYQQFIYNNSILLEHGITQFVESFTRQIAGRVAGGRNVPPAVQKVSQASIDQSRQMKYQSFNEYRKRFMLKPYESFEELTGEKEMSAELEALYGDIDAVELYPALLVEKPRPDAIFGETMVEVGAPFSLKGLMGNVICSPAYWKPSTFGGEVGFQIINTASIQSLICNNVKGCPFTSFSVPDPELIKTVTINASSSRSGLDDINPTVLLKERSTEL
Method: COX-1 and COX-2 activities were measured according to the method of Patrignani et al. (J. Pharm. Exp. Ther. Vol. 271, 1705 (1994)).
(2) COX-2 activity was measured in the following procedure. To blood collected from a healthy normal who had taken 330 mg of aspirin 48 hours before the blood collection in order to inhibit the COX-1 activity, 10 unit/ml of sodium heparin was added, and then pipetted into glass test tubes by 1 ml. 10 μg/ml of Lipopolysaccharide (LPS) was added thereto and the plasma obtained by the specified operation was stored at -40° C. until the measurement for the amount of prostaglandin E2 (PGE2). Test samples containing the test samples were treated in the same manner of operation as described above.
(4) The measurement for the PGE2 content was conducted in the following procedure. In a part of 96 well plate coated with goat anti-mouse antibody, 2 wells were alloted respectively to a blank well, Non-specific Binding (NSB) well, Maximum Binding (B0) well, standard wells at seven concentrations of PGE2 (1000 pg/ml) in doubling dilution ranging from 1000-15.6 pg/ml. The rest of the wells were used for the sample measurement. EIA buffer was added to the NSB wells (100 μl) and to the B0 wells (50 μl), respectively. 50 μl of each of the standard dilution was added in an order from thinner to thicker concentrations. Each of the samples was added to the rest of the wells in an amount of 50 μl. Then, 50 μl of PGE2 tracer was added to each of the wells except for blank wells. Further, 50 μl PGE2 monoclonal antibody was added to each of the wells except for the NSB wells and blank wells, then the well plate was covered with a plastic film and the reaction continued at room temperature for 18 hours. When the reaction was terminated, the wells were washed 5 times with a wash buffer. 200 μl of Elman's reagent was added to each of the wells, and then the well plate was covered with a plastic film and developed for 60 minutes in a dark place. The absorbance at 405 nm was measured by an Immuno Reader (NJ-2000, manufactured by Nippon Intermed Co., Ltd.). From the measurement result, %B/B0 was calculated and, applying it to the approximation formula of Hill Plot, the concentration of the samples was determined to be 40 times concentration. The dilution was conducted with an EIA buffer throughout the Test Example 3.

O=c1[nH]cc(F)c(=O)[nH]1 [5-fluorouracil, reference compound]
IC50 (CaCo-2 cells; Caco-2, 72 h): 3300 nM
Tumor Weight (Sarcoma 180 solid tumor): 0.930 g

CS(=O)(=O)Nc1ccc([N+](=O)[O-])cc1OC1CCCCC1 [Control Compound (c), N-(2-cyclohexyloxy-4-nitrophenyl)methanesulfonamido, reference compound]
Body temperature 1 Hour After (Brewer's Yeast Fever; 10 mg/kg oral, 1 hour after): 37.67 °C
Body temperature 3 Hours After (Brewer's Yeast Fever; 10 mg/kg oral, 3 hours after): 37.04 °C
Body temperature 5 Hours After (Brewer's Yeast Fever; 10 mg/kg oral, 5 hours after): 37.12 °C
Intrafebrile Body Temperature (Brewer's Yeast Fever; 18 hours after yeast injection, before administration, 10 mg/kg group): 38.89 °C
Basal Body Temperature (Brewer's Yeast Fever; one hour after sensor insertion, before yeast, 10 mg/kg group): 37.41 °C
threshold value fluctuation, non-inflammatory paw [1]: exerted no influence on the threshold value fluctuation with respect to the non-inflammatory paw in the same manner as control compound (c)
Pain Threshold Value Fluctuation Rate ([1]; po, 3 h): -1.46%
Pain Threshold Value Rising Rate ([1]; po, 3 h): 24.0%

COc1ccc2c(c1)c(CC(=O)O)c(C)n2C(=O)c1ccc(Cl)cc1 [Indomethacin, reference compound]
Right Hind Paw Volume day 21 (adjuvant arthritis; day 21 (starting date of administration), once daily): 3.88 mL
Right Hind Paw Volume day 27 (adjuvant arthritis; day 27, once daily for 7 days): 2.69 mL

Cc1cc(-c2ccc3c(ccn3C)c2)c(-c2ccc(S(C)(=O)=O)cc2)[nH]1 [Preparation Example 37, 4-(5-N-methylindolyl)-2-methyl-5-(4-methylsulfonylphenyl)-1H-pyrrole]
Edematization Suppression rate (carrageenan footedema): 26.5%
IC50 (Human COX-2; human blood, LPS, PGE2, IC50 from Hill Plot): 140 nM
COX-1/COX-2 (Human COX-2; ratio of IC50 COX-1 to COX-2): > 714
cytostatic action (CaCo-2 cells; CaCo-2 cells, colon cancer cells): demonstrated a cytostatic action with respect to CaCo-2 cells
IC50 (CaCo-2 cells; CaCo-2, 72 hours, XTT method): 950 nM
Tumor Weight (Sarcoma 180 solid tumor): 0.906 g
